Experimental findings from ChEMBL document CHEMBL1201862, “PubChem BioAssay data set” (2004) are described below.

Some test systems named below: Malme-3M; T47D; COLO 205; A549; OVCAR-8; HCT-116; SN12C; UO-31; NCI/ADR-RES; HCC 2998; DU-145; OVCAR-3; OVCAR-5; MDA-MB-231; SK-OV-3; MDA-N; CAKI-1; M14; PC-3; SF-268.
Holding throughout (experiment): DTP human tumour cell line panel, 48 h

Counter-ions that a name gives are not always drawn.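 The compound was tested at five concentrations on cells cultured in 96-well plates, with a 48-hour exposure period. GI50: concentration for 50% inhibition of growth.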 Active and inactive are the calls of the source. No stated cut-off is given here; in the data, active = GI50 up to about 1.1 µM and inactive = higher. A value given as a limit tells only on which side of the number the result lay.

On to `CC(=O)OCc1cc(=O)n2c([nH]c3ccccc32)c1C#N`, for which the GI50 was 89.1 µM (inactive) in the assay with Malme-3M; 78.5 µM (inactive) with T47D; 53.3 µM (inactive) in the assay with COLO 205; 51.9 µM (inactive) with A549; > 100 µM (inactive) with OVCAR-8; 51.3 µM (inactive) in the assay with HCT-116. The GI50 in the assay with SN12C was 67 µM (inactive); with UO-31, 78.3 µM (inactive); with NCI/ADR-RES it was > 100 µM (inactive); in the assay with HCC 2998 it was 42.6 µM (inactive); in the assay with DU-145 it was 68.7 µM (inactive); in the assay with OVCAR-3 it was 43.2 µM (inactive). Further, the GI50 was > 100 µM (inactive) with OVCAR-5; 48.4 µM (inactive) in the assay with MDA-MB-231; 80.7 µM (inactive) in the assay with SK-OV-3; > 100 µM (inactive) in the assay on MDA-N; 28.2 µM (inactive) in the assay on CAKI-1; 61.8 µM (inactive) in the assay with M14. Moreover, the GI50 in the assay with PC-3 is 40.6 µM (inactive).
As for `OC(c1ccsc1)c1cc2ccccc2s1` (centres undefined), the GI50 with T47D, in the assay on COLO 205, with A549, in the assay with OVCAR-8, with HCT-116 and with SN12C was > 10 µM (inactive) each time. Further, the GI50 with UO-31, with NCI/ADR-RES, in the assay with HCC 2998, in the assay on DU-145, in the assay on OVCAR-3 and with OVCAR-5 was > 10 µM (inactive) each time. In addition, the GI50 in the assay with MDA-MB-231, in the assay on SF-268, with SK-OV-3, in the assay with MDA-N, in the assay on CAKI-1 and in the assay with M14 was > 10 µM (inactive) each time. Besides, the GI50 in the assay with PC-3 is > 10 µM (inactive).
`Nc1nc(Cl)cc(NCC2(O)CC2)n1`: the GI50 with Malme-3M, in the assay on T47D, in the assay on A549, with OVCAR-8, in the assay on HCT-116 and in the assay on SN12C was > 100 µM (inactive) in each case. For the same compound, the GI50 in the assay on UO-31, in the assay with NCI/ADR-RES, in the assay with HCC 2998, with DU-145, in the assay on OVCAR-3 and in the assay with OVCAR-5 was > 100 µM (inactive) each time. Also, the GI50 in the assay on MDA-MB-231, with SF-268, in the assay with SK-OV-3, with MDA-N, with CAKI-1 and in the assay with PC-3 was > 100 µM (inactive) throughout.
In the case of `OC(Cc1cc(CC(O)(C(F)(F)F)C(F)(F)F)nc(CC(O)(C(F)(F)F)C(F)(F)F)c1)(C(F)(F)F)C(F)(F)F`, the GI50 is 2.59 µM (inactive) with Malme-3M; 0.755 µM (active) with T47D; 0.918 µM (active) in the assay on COLO 205; 1.4 µM (inactive) in the assay with A549; 1.33 µM (inactive) with OVCAR-8; 0.869 µM (active) with HCT-116. The GI50 with SN12C is 2.2 µM (inactive); with NCI/ADR-RES it was 1.66 µM (inactive); in the assay with HCC 2998, 1.83 µM (inactive); in the assay with DU-145, 1.91 µM (inactive); in the assay on OVCAR-3, 0.49 µM (active); in the assay on OVCAR-5 it was 3.43 µM (inactive). The GI50 was 1.92 µM (inactive) with MDA-MB-231; 1.88 µM (inactive) with SF-268; 3.96 µM (inactive) with SK-OV-3; 1.45 µM (inactive) in the assay with MDA-N; 0.321 µM (active) with CAKI-1; 2.43 µM (inactive) in the assay with M14. Besides, the GI50 with PC-3 is 0.323 µM (active).
In the case of `COC(=O)N1CC(=O)C(C(=O)NC23CC4CC(CC(C4)C2)C3)C1` (centres undefined), the GI50 in the assay with Malme-3M was 78.7 µM (inactive); in the assay on T47D, 47.8 µM (inactive); in the assay with COLO 205, 62.1 µM (inactive); in the assay with A549, > 100 µM (inactive); in the assay with OVCAR-8, 73.1 µM (inactive); with HCT-116, 64.6 µM (inactive). Besides, the GI50 in the assay on UO-31 is > 100 µM (inactive); with NCI/ADR-RES, 84.1 µM (inactive); with HCC 2998 it was 37 µM (inactive); in the assay with DU-145, 76.4 µM (inactive); with OVCAR-3, > 100 µM (inactive); with OVCAR-5, > 100 µM (inactive). For the same compound, the GI50 was 42.7 µM (inactive) with MDA-MB-231; 37.7 µM (inactive) with SF-268; > 100 µM (inactive) with MDA-N; > 100 µM (inactive) in the assay on CAKI-1; > 100 µM (inactive) in the assay on M14; 52 µM (inactive) with PC-3.
`COc1nc(C)nc2sc3c(c12)CCCC3`: the GI50 in the assay on Malme-3M, with T47D, in the assay on COLO 205, with OVCAR-8, in the assay with HCT-116 and with SN12C was > 100 µM (inactive) each time. Besides, the GI50 in the assay on UO-31 is 89.9 µM (inactive); with NCI/ADR-RES, > 100 µM (inactive); in the assay with HCC 2998, > 100 µM (inactive); in the assay on DU-145 it was > 100 µM (inactive); with OVCAR-3, > 100 µM (inactive); with OVCAR-5 it was > 100 µM (inactive). Further, the GI50 in the assay on MDA-MB-231, with SF-268, in the assay with MDA-N, in the assay with CAKI-1 and in the assay on PC-3 was > 100 µM (inactive) throughout.
Turning to `O=C(O)C1CCCCN1CCc1c[nH]c2ccccc12` (centres undefined), the GI50 with Malme-3M, in the assay with T47D, in the assay on COLO 205, in the assay on A549, in the assay on OVCAR-8 and in the assay on HCT-116 was > 100 µM (inactive) each time. The GI50 in the assay on SN12C, with NCI/ADR-RES, in the assay on HCC 2998, in the assay with DU-145, in the assay with OVCAR-3 and with OVCAR-5 was > 100 µM (inactive) throughout. Further, the GI50 with MDA-MB-231, in the assay on SF-268, in the assay on SK-OV-3, in the assay with MDA-N, in the assay with CAKI-1 and with M14 was > 100 µM (inactive) in each case. Besides, the GI50 in the assay with PC-3 was > 100 µM (inactive).
On to `COc1ccc2nc3c(nc2c1)C(C)(C)C=C3c1ccc(Br)cc1`, for which the GI50 with Malme-3M, in the assay on T47D, in the assay with COLO 205, in the assay on A549, in the assay with OVCAR-8 and in the assay with HCT-116 was > 100 µM (inactive) throughout. Besides, the GI50 with SN12C, in the assay on NCI/ADR-RES, with HCC 2998, in the assay with DU-145, with OVCAR-5 and in the assay with MDA-MB-231 was > 100 µM (inactive) in each case. Further, the GI50 in the assay with SF-268, with MDA-N, in the assay on CAKI-1, with M14 and in the assay with PC-3 was > 100 µM (inactive) in each case.
Take `CC(=O)/N=C1/N(/C=C2\C(=O)Oc3ccccc3C2=O)C(=O)/C(=C/c2cccc(Cl)c2Cl)N1C`: the GI50 is 33.6 µM (inactive) in the assay on Malme-3M; 32.1 µM (inactive) in the assay with T47D; 31.3 µM (inactive) with COLO 205; 28.2 µM (inactive) in the assay on A549; 19.7 µM (inactive) in the assay with OVCAR-8; 29.4 µM (inactive) with HCT-116. Moreover, the GI50 in the assay on SN12C is 42.6 µM (inactive); in the assay with NCI/ADR-RES it was 22.5 µM (inactive); in the assay on HCC 2998, 16.7 µM (inactive); with DU-145 it was 41.8 µM (inactive); with OVCAR-3, 1.39 µM (inactive); with OVCAR-5 it was 30.3 µM (inactive). For the same compound, the GI50 in the assay with MDA-MB-231 is 29.9 µM (inactive); in the assay on SF-268, 20.4 µM (inactive); in the assay on SK-OV-3 it was 17.2 µM (inactive); with MDA-N, 42.8 µM (inactive); in the assay with CAKI-1, 27.4 µM (inactive); in the assay with M14 it was 14.8 µM (inactive). The GI50 in the assay on PC-3 is 35.3 µM (inactive).
Take `C=C1C[C@@H]2CC[C@@]34C[C@H]5O[C@H]6[C@@H](O3)[C@H]3O[C@H](CC[C@@H]3O[C@H]6[C@H]5O4)CC(=O)C[C@@H]3[C@@H](OC)[C@@H](C[C@H](O)CN)O[C@H]3C[C@H]3O[C@@H](CC[C@@H]1O2)C[C@@H](C)C3=C` [ERIBULIN MESYLATE]: the GI50 is 0.00366 µM (active) with Malme-3M; < 0.0001 µM (active) in the assay with T47D; 0.00031 µM (active) with COLO 205; 0.00197 µM (active) in the assay with A549; 0.00598 µM (active) with OVCAR-8; 0.00074 µM (active) with HCT-116. Besides, the GI50 in the assay with SN12C was 0.00361 µM (active); with UO-31, 0.126 µM (active); in the assay with NCI/ADR-RES it was 0.294 µM (active); in the assay with HCC 2998, 0.00201 µM (active); with DU-145, 0.00118 µM (active); in the assay with OVCAR-3, 9.59e-05 µM (active). Besides, the GI50 with MDA-MB-231 is 0.00255 µM (active); with SF-268, 0.00267 µM (active); with SK-OV-3 it was 0.000558 µM (active); in the assay with MDA-N, 7.59e-05 µM (active); in the assay with CAKI-1, 0.0179 µM (active); with M14 it was 0.00309 µM (active). In addition, the GI50 in the assay with PC-3 was 0.00037 µM (active).

The term GI50 denotes the concentration at which growth is held to half of that of the control.
